Assay results reported in ChEMBL document CHEMBL4507293 (2021).

Columns and labels:
[1] = system: Phosphatidylinositol 4,5-bisphosphate 3-kinase catalytic subunit alpha isoform (Homo sapiens), P42336 [H1047L]; settings: Compound concentration 100.0 nM
[2] = target: Serine/threonine-protein kinase ULK1 (Homo sapiens) (UniProt O75385); settings: Compound concentration 100.0 nM
[3] = target: Mitogen-activated protein kinase kinase kinase kinase 1 (Homo sapiens) (UniProt Q92918); settings: Compound concentration 100.0 nM
[4] = target: Vasopressin V2 receptor (Homo sapiens) (UniProt P30518); experiment: Inhibition of Vasopressin V2 at 10 µM in the Eurofins-Panlabs radioligand binding assay (Eurofins_assay_287610); set-up: ligand concentration 4 nM; settings: Compound concentration 10.0 uM
[5] = target: T1, Alpha-2B adrenergic receptor (Homo sapiens) (UniProt P18089); settings: Compound concentration 10.0 uM
T1 sequence (whole entry): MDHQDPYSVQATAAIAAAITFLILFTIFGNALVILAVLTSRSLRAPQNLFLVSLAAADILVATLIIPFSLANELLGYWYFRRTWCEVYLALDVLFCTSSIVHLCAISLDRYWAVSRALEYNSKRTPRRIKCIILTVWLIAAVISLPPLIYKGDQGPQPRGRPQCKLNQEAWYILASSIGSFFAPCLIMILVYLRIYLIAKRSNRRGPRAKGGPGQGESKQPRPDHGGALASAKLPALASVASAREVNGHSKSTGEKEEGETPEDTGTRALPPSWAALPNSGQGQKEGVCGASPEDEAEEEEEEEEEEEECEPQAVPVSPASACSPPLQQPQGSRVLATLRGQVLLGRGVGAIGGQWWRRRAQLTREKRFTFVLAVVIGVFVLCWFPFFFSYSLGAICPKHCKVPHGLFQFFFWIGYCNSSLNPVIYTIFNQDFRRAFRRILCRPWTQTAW

Homo sapiens [6] = species on record: Homo sapiens; experiment: Cholecystokinin CCK2 (CCKB) Eurofins-Panlabs radioligand binding assay; set-up: ligand concentration 0.072 nM, non-specific ligand with concentration 1 µM Sincalide, incubation time 3 h, incubation temperature 25 °C; settings: Compound concentration 10.0 uM
[7] = target: Substance-P receptor (Homo sapiens) (UniProt P25103); experiment: Tachykinin NK1 Eurofins-Panlabs radioligand binding assay; settings: Compound concentration 10.0 uM
[8] = target: Neuropeptide Y receptor type 1 (Homo sapiens) (UniProt P25929); experiment: Inhibition of Neuropeptide Y Y1 at 10 µM in the Eurofins-Panlabs radioligand binding assay (Eurofins_assay_257010); settings: Compound concentration 10.0 uM
[9] = target: Alpha-1D adrenergic receptor (Homo sapiens) (UniProt P25100); settings: Compound concentration 10.0 uM
[10] = target: Prostaglandin E2 receptor EP1 subtype (Homo sapiens) (UniProt P34995); experiment: Prostanoid EP1 Eurofins-Panlabs radioligand binding assay; settings: Compound concentration 10.0 uM
[11] = target: T2, Muscarinic acetylcholine receptor M4 (Homo sapiens) (UniProt P08173); settings: Compound concentration 10.0 uM
T2 sequence (whole entry): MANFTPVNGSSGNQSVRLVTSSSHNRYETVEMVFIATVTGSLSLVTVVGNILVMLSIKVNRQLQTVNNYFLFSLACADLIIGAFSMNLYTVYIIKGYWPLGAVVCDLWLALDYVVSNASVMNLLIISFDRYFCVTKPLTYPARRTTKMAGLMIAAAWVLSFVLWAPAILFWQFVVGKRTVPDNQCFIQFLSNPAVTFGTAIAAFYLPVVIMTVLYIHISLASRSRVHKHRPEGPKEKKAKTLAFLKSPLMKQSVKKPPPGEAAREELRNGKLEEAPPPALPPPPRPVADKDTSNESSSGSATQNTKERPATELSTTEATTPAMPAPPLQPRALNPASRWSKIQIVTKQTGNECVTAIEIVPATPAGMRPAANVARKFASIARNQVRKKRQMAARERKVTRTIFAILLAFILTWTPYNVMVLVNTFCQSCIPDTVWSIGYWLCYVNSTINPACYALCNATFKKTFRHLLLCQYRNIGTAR

[12] = target: Neurotensin receptor type 1 (Homo sapiens) (UniProt P30989); experiment: Neurotensin NT1 Eurofins-Panlabs radioligand binding assay; set-up: ligand concentration 0.02 nM, non-specific ligand with concentration 1 µM Neurotensin, incubation time 45 min, incubation temperature 25 °C; settings: Compound concentration 10.0 uM
[13] = target: Epidermal growth factor receptor (Homo sapiens) (UniProt P00533); experiment: Protein Tyrosine Kinase, EGF Receptor Eurofins-Panlabs enzyme assay; set-up: substrate with concentration 10 µg/mL Poly(Glu:Tyr), incubation time 60 min, incubation temperature 25 °C; settings: Compound concentration 10.0 uM
[14] = target: B2 bradykinin receptor (Homo sapiens) (UniProt P30411); experiment: Bradykinin B2 Eurofins-Panlabs radioligand binding assay; settings: Compound concentration 10.0 uM
[15] = target: Peroxisome proliferator-activated receptor gamma (Homo sapiens) (UniProt P37231); experiment: PPARgamma Eurofins-Panlabs radioligand binding assay; set-up: ligand concentration 5 nM, non-specific ligand with concentration 0.5 µM L-797773, incubation time 18 h, incubation temperature 15 °C; settings: Compound concentration 10.0 uM
Bos taurus = species on record: Bos taurus; experiment: Protein Serine/Threonine Kinase, PKA, Non-Selective Eurofins-Panlabs enzyme assay; format: protein-complex assay; set-up: substrate with concentration 370 µg/mL Histone Type III-S, incubation time 15 min, incubation temperature 25 °C; settings: Compound concentration 10.0 uM
[16] = target: Cannabinoid receptor 1 (Homo sapiens) (UniProt P21554); settings: Compound concentration 10.0 uM
[17] = target: Adenosine receptor A1 (Homo sapiens) (UniProt P30542); settings: Compound concentration 10.0 uM
[18] = target: Endothelin receptor type B (Homo sapiens) (UniProt P24530); settings: Compound concentration 10.0 uM
[19] = target: Corticotropin-releasing factor receptor 1 (Homo sapiens) (UniProt P34998); experiment: Corticotropin Releasing Factor CRF1 Eurofins-Panlabs radioligand binding assay; settings: Compound concentration 10.0 uM
[20] = target: MAP/microtubule affinity-regulating kinase 3 (Homo sapiens) (UniProt P27448); experiment: Protein Serine/Threonine Kinase, MARK3 Eurofins-Panlabs enzyme assay; settings: Compound concentration 10.0 uM
[21] = target: Gamma-aminobutyric acid type B receptor subunit 1 (Homo sapiens) (UniProt Q9UBS5); settings: Rattus norvegicus; Compound concentration 10.0 uM
[22] = target: Nociceptin receptor (Homo sapiens) (UniProt P41146); experiment: Orphanin ORL1 Eurofins-Panlabs radioligand binding assay; settings: Compound concentration 10.0 uM
[23] = target: Thyrotropin-releasing hormone receptor (Homo sapiens) (UniProt P34981); experiment: Thyrotropin Releasing Hormone (TRH) Eurofins-Panlabs radioligand binding assay; set-up: ligand concentration 3 nM; settings: Rattus norvegicus; Compound concentration 10.0 uM
[24] = target: Prostaglandin G/H synthase 2 (Homo sapiens) (UniProt P35354); experiment: Inhibition of Cyclooxygenase COX-2 at compound concentration of 10.0 uM in the Eurofins-Panlabs enzyme assay (Eurofins_assay_118010); set-up: substrate with concentration 0.3 uM Arachidonic acid, incubation time 15 min, incubation temperature 37 C; settings: Compound concentration 10.0 uM
[25] = target: Progesterone receptor (Homo sapiens) (UniProt P06401); experiment: Inhibition of Progesterone PR-B at 10 µM in the Eurofins-Panlabs radioligand binding assay (Eurofins_assay_268020); set-up: ligand concentration 1.4 nM; settings: Compound concentration 10.0 uM
Homo sapiens [26] = species on record: Homo sapiens; experiment: Inhibition of Nicotinic Acetylcholine at compound concentration of 10.0 uM in the Eurofins-Panlabs radioligand binding assay (Eurofins_assay_258590); format: protein-complex assay; settings: Compound concentration 10.0 uM
[27] = target: Vasoactive intestinal polypeptide receptor 1 (Homo sapiens) (UniProt P32241); experiment: Inhibition of Vasoactive Intestinal Peptide VIP1 at 10 µM in the Eurofins-Panlabs radioligand binding assay (Eurofins_assay_287010); settings: Compound concentration 10.0 uM

Sequence of Gamma-aminobutyric acid type B receptor subunit 1 (Homo sapiens) (Q9UBS5 whole entry): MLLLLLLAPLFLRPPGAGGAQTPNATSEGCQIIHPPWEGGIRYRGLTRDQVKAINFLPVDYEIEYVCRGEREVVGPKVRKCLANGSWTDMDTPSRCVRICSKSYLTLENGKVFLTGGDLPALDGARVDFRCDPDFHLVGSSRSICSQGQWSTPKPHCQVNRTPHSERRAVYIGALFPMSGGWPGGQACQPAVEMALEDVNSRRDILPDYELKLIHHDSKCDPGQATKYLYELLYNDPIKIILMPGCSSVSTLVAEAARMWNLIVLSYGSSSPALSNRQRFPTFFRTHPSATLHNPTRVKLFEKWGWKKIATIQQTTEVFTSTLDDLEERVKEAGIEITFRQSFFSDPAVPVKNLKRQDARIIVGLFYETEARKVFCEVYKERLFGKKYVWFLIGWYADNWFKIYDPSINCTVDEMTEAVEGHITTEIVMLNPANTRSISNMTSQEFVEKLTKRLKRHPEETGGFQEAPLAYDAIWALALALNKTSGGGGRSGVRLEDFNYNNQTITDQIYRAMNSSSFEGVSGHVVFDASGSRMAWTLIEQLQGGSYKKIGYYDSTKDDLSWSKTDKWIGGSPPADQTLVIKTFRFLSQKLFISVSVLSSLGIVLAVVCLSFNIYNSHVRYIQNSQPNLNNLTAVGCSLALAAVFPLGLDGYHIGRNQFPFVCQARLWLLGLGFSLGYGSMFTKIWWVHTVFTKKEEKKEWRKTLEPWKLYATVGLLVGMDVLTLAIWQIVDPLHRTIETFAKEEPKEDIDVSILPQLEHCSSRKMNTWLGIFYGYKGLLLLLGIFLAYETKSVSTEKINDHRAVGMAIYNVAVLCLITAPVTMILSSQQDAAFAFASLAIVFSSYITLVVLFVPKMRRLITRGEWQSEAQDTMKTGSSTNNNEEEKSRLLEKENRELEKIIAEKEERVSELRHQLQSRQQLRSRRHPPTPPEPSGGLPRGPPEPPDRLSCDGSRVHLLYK
Sequence of Progesterone receptor (Homo sapiens) (P06401 whole entry): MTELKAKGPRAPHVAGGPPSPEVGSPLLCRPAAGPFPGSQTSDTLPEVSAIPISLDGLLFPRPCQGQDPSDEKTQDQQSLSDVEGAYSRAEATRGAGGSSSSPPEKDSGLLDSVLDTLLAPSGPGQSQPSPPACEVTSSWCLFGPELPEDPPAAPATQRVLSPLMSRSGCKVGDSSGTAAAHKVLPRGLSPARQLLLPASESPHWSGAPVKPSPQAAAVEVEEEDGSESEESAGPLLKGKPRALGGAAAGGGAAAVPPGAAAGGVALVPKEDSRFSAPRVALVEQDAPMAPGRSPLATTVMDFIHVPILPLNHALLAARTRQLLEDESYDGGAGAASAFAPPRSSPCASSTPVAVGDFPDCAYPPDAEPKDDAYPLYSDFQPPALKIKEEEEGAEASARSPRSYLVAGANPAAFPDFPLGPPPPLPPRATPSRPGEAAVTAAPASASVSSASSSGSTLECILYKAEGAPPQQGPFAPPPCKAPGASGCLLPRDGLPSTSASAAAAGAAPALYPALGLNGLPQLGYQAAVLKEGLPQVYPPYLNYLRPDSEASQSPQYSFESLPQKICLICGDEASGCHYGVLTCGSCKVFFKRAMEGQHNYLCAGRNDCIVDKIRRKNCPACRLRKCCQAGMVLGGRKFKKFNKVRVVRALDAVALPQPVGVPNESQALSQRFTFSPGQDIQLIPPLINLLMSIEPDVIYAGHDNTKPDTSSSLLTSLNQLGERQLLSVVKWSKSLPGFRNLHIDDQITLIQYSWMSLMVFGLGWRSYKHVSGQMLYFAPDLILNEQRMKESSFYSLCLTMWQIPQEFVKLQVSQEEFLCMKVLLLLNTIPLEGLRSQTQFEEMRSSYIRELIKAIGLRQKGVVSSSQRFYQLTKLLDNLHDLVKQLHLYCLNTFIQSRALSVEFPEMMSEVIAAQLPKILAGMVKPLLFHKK
Sequence of Endothelin receptor type B (Homo sapiens) (P24530 whole entry): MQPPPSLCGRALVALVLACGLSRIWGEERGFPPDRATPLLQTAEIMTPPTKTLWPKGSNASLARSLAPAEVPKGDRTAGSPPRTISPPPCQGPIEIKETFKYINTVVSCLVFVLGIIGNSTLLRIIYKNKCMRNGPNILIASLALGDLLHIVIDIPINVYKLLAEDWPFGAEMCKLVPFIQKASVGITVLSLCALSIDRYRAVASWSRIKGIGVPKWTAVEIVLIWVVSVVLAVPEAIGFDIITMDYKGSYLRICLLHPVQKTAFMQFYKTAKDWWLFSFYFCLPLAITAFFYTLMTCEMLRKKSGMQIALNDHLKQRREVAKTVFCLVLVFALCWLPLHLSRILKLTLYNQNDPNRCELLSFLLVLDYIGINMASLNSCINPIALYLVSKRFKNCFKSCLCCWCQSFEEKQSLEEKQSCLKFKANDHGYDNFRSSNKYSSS
Sequence of Alpha-1D adrenergic receptor (Homo sapiens) (P25100 whole entry): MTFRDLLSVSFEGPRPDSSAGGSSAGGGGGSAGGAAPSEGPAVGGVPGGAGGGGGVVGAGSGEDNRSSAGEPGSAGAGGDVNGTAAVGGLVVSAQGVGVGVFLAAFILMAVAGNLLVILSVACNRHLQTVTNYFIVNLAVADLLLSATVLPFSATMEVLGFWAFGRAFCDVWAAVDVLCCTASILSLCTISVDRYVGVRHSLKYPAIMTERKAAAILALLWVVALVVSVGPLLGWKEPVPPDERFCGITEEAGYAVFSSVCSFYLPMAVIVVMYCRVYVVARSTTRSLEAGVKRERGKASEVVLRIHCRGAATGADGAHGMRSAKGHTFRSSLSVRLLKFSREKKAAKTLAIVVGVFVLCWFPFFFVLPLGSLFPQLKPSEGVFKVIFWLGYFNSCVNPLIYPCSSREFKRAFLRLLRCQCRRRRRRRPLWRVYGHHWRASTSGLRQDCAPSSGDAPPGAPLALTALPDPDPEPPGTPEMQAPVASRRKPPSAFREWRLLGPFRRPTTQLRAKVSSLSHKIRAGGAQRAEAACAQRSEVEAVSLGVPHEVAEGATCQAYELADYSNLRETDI
Sequence of Prostaglandin G/H synthase 2 (Homo sapiens) (P35354 whole entry): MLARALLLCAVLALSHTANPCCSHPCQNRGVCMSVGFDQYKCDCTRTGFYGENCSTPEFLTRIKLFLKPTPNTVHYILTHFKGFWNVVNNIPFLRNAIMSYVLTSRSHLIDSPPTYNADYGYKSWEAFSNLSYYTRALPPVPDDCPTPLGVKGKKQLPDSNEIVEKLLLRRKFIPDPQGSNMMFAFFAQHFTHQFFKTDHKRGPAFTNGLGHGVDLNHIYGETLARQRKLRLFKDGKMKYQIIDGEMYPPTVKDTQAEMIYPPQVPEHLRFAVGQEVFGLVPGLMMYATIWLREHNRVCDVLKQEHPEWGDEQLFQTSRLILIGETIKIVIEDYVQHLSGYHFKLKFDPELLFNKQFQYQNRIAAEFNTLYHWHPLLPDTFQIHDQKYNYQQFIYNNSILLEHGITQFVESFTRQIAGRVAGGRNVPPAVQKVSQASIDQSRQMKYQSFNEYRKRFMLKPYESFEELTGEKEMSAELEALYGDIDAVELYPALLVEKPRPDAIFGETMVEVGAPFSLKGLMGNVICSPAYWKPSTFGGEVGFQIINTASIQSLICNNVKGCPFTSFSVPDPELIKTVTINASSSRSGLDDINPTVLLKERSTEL
Sequence of Nociceptin receptor (Homo sapiens) (P41146 whole entry): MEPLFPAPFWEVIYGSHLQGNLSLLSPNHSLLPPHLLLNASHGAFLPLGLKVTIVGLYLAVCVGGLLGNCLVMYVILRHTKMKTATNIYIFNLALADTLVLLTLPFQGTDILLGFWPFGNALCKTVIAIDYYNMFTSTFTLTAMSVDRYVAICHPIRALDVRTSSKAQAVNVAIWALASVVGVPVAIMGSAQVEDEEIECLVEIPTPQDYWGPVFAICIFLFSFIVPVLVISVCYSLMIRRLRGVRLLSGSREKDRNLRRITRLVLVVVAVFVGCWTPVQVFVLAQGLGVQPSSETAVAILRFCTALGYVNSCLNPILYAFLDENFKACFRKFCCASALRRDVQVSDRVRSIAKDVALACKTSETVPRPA
Sequence of Neurotensin receptor type 1 (Homo sapiens) (P30989 whole entry): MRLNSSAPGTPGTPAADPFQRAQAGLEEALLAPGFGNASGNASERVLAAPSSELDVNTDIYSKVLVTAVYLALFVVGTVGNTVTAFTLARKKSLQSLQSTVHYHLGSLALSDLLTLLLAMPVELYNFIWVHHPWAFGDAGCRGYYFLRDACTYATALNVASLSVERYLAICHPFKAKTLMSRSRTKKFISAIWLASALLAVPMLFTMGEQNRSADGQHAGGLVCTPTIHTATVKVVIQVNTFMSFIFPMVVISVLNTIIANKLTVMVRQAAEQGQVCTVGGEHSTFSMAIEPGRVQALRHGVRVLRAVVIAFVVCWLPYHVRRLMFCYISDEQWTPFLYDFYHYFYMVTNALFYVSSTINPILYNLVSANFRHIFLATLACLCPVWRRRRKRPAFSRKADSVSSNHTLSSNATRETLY
Sequence of Adenosine receptor A1 (Homo sapiens) (P30542 whole entry): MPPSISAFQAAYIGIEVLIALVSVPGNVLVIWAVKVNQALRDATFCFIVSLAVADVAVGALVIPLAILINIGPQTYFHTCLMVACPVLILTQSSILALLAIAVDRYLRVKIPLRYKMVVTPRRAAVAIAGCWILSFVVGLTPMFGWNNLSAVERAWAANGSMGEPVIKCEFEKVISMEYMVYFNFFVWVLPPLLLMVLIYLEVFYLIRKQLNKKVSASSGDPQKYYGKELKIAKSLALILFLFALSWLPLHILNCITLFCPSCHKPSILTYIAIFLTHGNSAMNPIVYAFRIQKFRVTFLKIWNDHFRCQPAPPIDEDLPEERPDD
Sequence of Neuropeptide Y receptor type 1 (Homo sapiens) (P25929 whole entry): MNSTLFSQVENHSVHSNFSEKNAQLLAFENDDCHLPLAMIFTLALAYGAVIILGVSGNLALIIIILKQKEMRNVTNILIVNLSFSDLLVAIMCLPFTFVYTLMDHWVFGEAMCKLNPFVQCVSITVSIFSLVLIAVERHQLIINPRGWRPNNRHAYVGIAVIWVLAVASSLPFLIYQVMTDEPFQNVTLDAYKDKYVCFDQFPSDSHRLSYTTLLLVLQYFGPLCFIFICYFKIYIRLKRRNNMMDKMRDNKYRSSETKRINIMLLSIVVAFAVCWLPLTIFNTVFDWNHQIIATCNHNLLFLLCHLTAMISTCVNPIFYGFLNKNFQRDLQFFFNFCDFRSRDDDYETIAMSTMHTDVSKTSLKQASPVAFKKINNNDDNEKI

CC(C)CC(=O)N1CCc2nc(-c3ccc(Br)cc3)nc(N(C)Cc3ccccc3)c2C1 [THPP-1-NC]
inactive: residual activity [1] 100% | residual activity [2] 90% | residual activity [3] 93%

COCCOc1nc(-c2ccc(Cl)nc2)nc2c1CN(C(=O)c1ncn3ccccc13)CC2 [THPP-1]
inactive: inhibition [4] -2% | inhibition [5] 1% | inhibition (Homo sapiens [6]) -8% | inhibition [7] 8% | inhibition [8] 1% | inhibition [9] -4.48% | inhibition [10] -1% | inhibition [11] 5% | inhibition [12] 10% | inhibition [13] 6% | inhibition [14] 13% | inhibition [15] -4% | inhibition (Bos taurus) -7% | inhibition [16] 21% | inhibition [17] 37% | inhibition [18] 0% | inhibition [19] 12% | inhibition [20] 7% | inhibition [21] -5% | inhibition [22] 5% | inhibition [23] 7% | inhibition [24] -10% | inhibition [25] 12% | inhibition (Homo sapiens [26]) -7% | inhibition [27] 8%
